Source: US10639320B2, “Pharmaceutical composition comprising gold-containing agent for preventing or treating liver fibrosis or liver cirrhosis” (KOREA UNITED PHARM. INC., priority 2014, dated 2020)

Columns and labels:
[1] = tested on: RAW264.7 cells; experiment: Arginase-1 expression by western blot in RAW264.7 cells under M2-type differentiation (IL-4); type: cell-based, mouse; conditions: RAW264.7 cells treated with IL-4 (M2-type condition)
Procedure: (§1) Sodium dodecyl sulfate-polyacrylamide gel electrophoresis (SDS-PAGE) was performed using a gel electrophoresis apparatus (Mighty Small SE 250, Hoefer Scientific Instruments, San Francisco, USA) according to the Laemmli's protocol. A dissolved fraction of cells was diluted in a sample dilution buffer [63 mM Tris (pH.6.8), 10% glycerol, 2% SDS, 0.0013% bromophenol blue, 5% β-mercaptoethanol) and electrophoresed in an electrode buffer (containing Tris (15 g), glycerin (72 g), and SDS (5 g) in 1L solution) using 8%- and 10% gels. Upon completion of gel electrophoresis, the gel was transferred onto a nitrocellulose membrane at 40 mAmps for 3 hours in a transfer buffer solution (25 mM Tris, 192 mM glycerin, 20% v/v methanol (pH 8.3)). Each of anti-TREM-2, anti-arginase-1, anti-iNOS, anti-α-SMA, and anti-collagen-1a1, as primary antibodies, was reacted on the nitrocellulose membrane, respectively, and horseradish peroxidase-conjugated goat anti-rabbit IgG and horseradish peroxidase-conjugated goat anti-mouse IgG, as secondary antibodies, were reacted thereonto for 1 hour, and the nitrocellulose membrane was allowed to develop colors using the ECL detection system (ECL chemiluminescence system, Amersham, Gaithesberg, Mass., USA). […] In each lane, the intensities were calculated using the AlphaEase™ version 5.5 software by subtracting background intensities. […]

[2] = tested on: RAW264.7 cells; experiment: iNOS and TREM-2 expression by western blot in RAW264.7 cells under M1-type differentiation (LPS/IFN-γ); type: cell-based, mouse; conditions: RAW264.7 cells treated with LPS/IFN-γ (M1-type condition)
Procedure: Sodium dodecyl sulfate-polyacrylamide gel electrophoresis (SDS-PAGE) was performed using a gel electrophoresis apparatus (Mighty Small SE 250, Hoefer Scientific Instruments, San Francisco, USA) according to the Laemmli's protocol. A dissolved fraction of cells was diluted in a sample dilution buffer [63 mM Tris (pH.6.8), 10% glycerol, 2% SDS, 0.0013% bromophenol blue, 5% β-mercaptoethanol) and electrophoresed in an electrode buffer (containing Tris (15 g), glycerin (72 g), and SDS (5 g) in 1L solution) using 8%- and 10% gels. Upon completion of gel electrophoresis, the gel was transferred onto a nitrocellulose membrane at 40 mAmps for 3 hours in a transfer buffer solution (25 mM Tris, 192 mM glycerin, 20% v/v methanol (pH 8.3)). Each of anti-TREM-2, anti-arginase-1, anti-iNOS, anti-α-SMA, and anti-collagen-1a1, as primary antibodies, was reacted on the nitrocellulose membrane, respectively, and horseradish peroxidase-conjugated goat anti-rabbit IgG and horseradish peroxidase-conjugated goat anti-mouse IgG, as secondary antibodies, were reacted thereonto for 1 hour, and the nitrocellulose membrane was allowed to develop colors using the ECL detection system (ECL chemiluminescence system, Amersham, Gaithesberg, Mass., USA). The identity of protein contents in a sample was confirmed using anti-β-actin antibody and anti-lamin A/C. With respect to the change in the amount of protein expression, the coloration intensity was induced using a densitometry and the scanning of the densitometry was performed using the Image Scan & Analysis System, Alpha-Innotech Co. (USA). In each lane, the intensities were calculated using the AlphaEase™ version 5.5 software by subtracting background intensities.
In order to confirm whether gold-containing agents can induce the transformation into M2-type macrophages, the RAW264.7 cells, which is a mouse macrophage cell line, were treated with lipopolysaccharide (LPS)/interferon-gamma (IFN-γ), followed by treatment with auranofin in a condition for differentiation into M1-type macrophages, and the increase/decrease in expressions of iNOS and TREM-2 was confirmed by western blot analysis.
First, the RAW264.7 cells, which is a mouse macrophage cell line, were respectively treated with sodium aurothiomalate and aurothioglucose, which are analogous to auranofin, in a condition for differentiating the cells into M1-type macrophages by treating with lipopolysaccharide (LPS)/interferon-gamma (IFN-gamma), and the increase/decrease in expression of iNOS was confirmed by western blot analysis.

[3] = tested on: carbon tetrachloride-induced liver fibrosis; experiment: Mouse model with carbon tetrachloride-induced liver fibrosis: fibrosis scores, α-SMA and collagen-1a1 in liver tissue; type: in vivo, C57BL/6J mice; conditions: 5 times a week for 3 weeks, CCl4 mouse model
Procedure: A mouse model with carbon tetrachloride-induced liver fibrosis was prepared by repeatedly administering 0.5 ml/kg of carbon tetrachloride to C57BL/6J mice twice a week for three weeks.
Sodium dodecyl sulfate-polyacrylamide gel electrophoresis (SDS-PAGE) was performed using a gel electrophoresis apparatus (Mighty Small SE 250, Hoefer Scientific Instruments, San Francisco, USA) according to the Laemmli's protocol. A dissolved fraction of cells was diluted in a sample dilution buffer [63 mM Tris (pH.6.8), 10% glycerol, 2% SDS, 0.0013% bromophenol blue, 5% β-mercaptoethanol) and electrophoresed in an electrode buffer (containing Tris (15 g), glycerin (72 g), and SDS (5 g) in 1L solution) using 8%- and 10% gels. Upon completion of gel electrophoresis, the gel was transferred onto a nitrocellulose membrane at 40 mAmps for 3 hours in a transfer buffer solution (25 mM Tris, 192 mM glycerin, 20% v/v methanol (pH 8.3)). Each of anti-TREM-2, anti-arginase-1, anti-iNOS, anti-α-SMA, and anti-collagen-1a1, as primary antibodies, was reacted on the nitrocellulose membrane, respectively, and horseradish peroxidase-conjugated goat anti-rabbit IgG and horseradish peroxidase-conjugated goat anti-mouse IgG, as secondary antibodies, were reacted thereonto for 1 hour, and the nitrocellulose membrane was allowed to develop colors using the ECL detection system (ECL chemiluminescence system, Amersham, Gaithesberg, Mass., USA). […] In each lane, the intensities were calculated using the AlphaEase™ version 5.5 software by subtracting background intensities.
In the case of liver tissue, a certain amount of liver tissue was homogenized in a mortar along with liquid nitrogen and a cell lysis buffer, transferred into a new tube, and vortexed. The resultant was centrifuged at 14,000 rpm and 4° C. for 20 minutes and the middle layer was collected therefrom and the protein amount was quantitated by Bradford assay. After subjecting 30 μg of the protein to electrophoresis by SDS-PAGE, the change in the expression of α-SMA protein was measured by western blot analysis. […]

[4] = tested on: MEF cells; experiment: α-SMA expression by western blot in MEF cells treated with medium of auranofin-treated RAW264.7 cells; type: cell-based, mouse; conditions: MEF cells treated with medium from treated RAW264.7 cells
Procedure: as §1

Structure (SMILES)	expression of arginase-1 [1]	expression of iNOS [2]	liver fibrosis scores ([3]; 10 mg/kg oral, H&E staining)	expression of collagen-1a1 in liver tissue ([3]; oral 1, 3 and 10 mg/kg)	expression of α-SMA in liver tissue ([3]; oral 1, 3 and 10 mg/kg)	expression of α-SMA [4]	expression of TREM-2 [2]
O=C([O-])CC([S-])C(=O)[O-].[Au+].[Na+].[Na+] (stereo not shown) [sodium aurothiomalate]	increased	inhibited	–	–	–	–	–
CC[PH](CC)(CC)[Au][S][C@@H]1O[C@H](COC(C)=O)[C@@H](OC(C)=O)[C@H](OC(C)=O)[C@H]1OC(C)=O [auranofin, 2,3,4,6-tetra-O-acetyl-1-thio-β-D-glucopyranosato-S-[triethylphosphine] gold]	–	inhibited	significantly lowered	apparently reduced	apparently reduced	inhibited	increasing
OC[C@H]1O[C@H]([S-])[C@H](O)[C@@H](O)[C@@H]1O.[Au+] [aurothioglucose]	increased	inhibited	–	–	–	–	–
